pIC50: −log10 of the molar value.
Biological target: GTPase KRas (Homo sapiens, UniProt P01116, C118S/C51S/C80L/G12C)
Experiment: Inhibition of biotinylated KRAS G12C/C51S/C80L/C118S mutant (unknown origin) pretreated for 60 mins followed by recombinant SOS addition by SOS-catalyzed nucleotide exchange-based TR-FRET analysis
Conditions: not given

Sequence of GTPase KRas (P01116 whole entry G12C/C51S/C80L/C118S): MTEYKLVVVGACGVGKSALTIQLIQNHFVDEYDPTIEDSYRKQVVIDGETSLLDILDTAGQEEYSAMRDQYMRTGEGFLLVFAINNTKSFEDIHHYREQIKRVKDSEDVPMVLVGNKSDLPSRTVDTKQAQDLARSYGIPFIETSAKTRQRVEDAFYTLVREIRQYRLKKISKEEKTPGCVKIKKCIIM

Compound	pIC50
[2H]C1([2H])Oc2ccc(F)c(F)c2-c2nc3c(cc2Cl)c(N2C[C@@H](C)N(C(=O)C=C)C[C@@H]2C)nc(=O)n3-c2c(ccnc2C(C)C)OC1([2H])[2H]	9.29
C=CC(=O)N1CCN(c2nc(=O)n3c4nc(c(Cl)cc24)-c2c(F)cccc2OCC(F)(F)CCc2ccnc(C(C)C)c2-3)[C@@H](C)C1	9.25
C=CC(=O)N1CCN(c2nc(=O)n3c4nc(c(F)cc24)-c2c(F)cccc2OCCCc2ccnc(C(C)C)c2-3)[C@@H](C)C1	8.37
C=CC(=O)N1CCN(c2nc(=O)n3c4nc(c(F)cc24)-c2c(F)cccc2OCCCCc2ccnc(C(C)C)c2-3)[C@@H](C)C1	8.62
C=CC(=O)N1C[C@H](C)N(c2nc(=O)n3c4nc(c(Cl)cc24)-c2c(F)ccc(F)c2OCCOc2ccnc(C(C)C)c2-3)C[C@H]1C	8.96
C=CC(=O)N1C[C@H](C)N(c2nc(=O)n3c4nc(c(Cl)cc24)-c2c(F)cccc2OCCc2ccnc(C(C)C)c2-3)C[C@H]1C	8.59

Tested on: not listed separately
Experiment: Inhibition of ERK phosphorylation in human NCI-H358 cells incubated for 2 hrs by cellular assay
Assay type: cell-based
Conditions: NCI-H358, 2 h

Compound	pIC50
C=CC(=O)N1C[C@H](C)N(c2nc(=O)n3c4nc(c(Cl)cc24)-c2c(ccc(F)c2F)OCCCc2ncnc(C(C)C)c2-3)C[C@H]1C	8.44
C=CC(=O)N1C[C@H](C)N(c2nc(=O)n3c4nc(c(F)cc24)-c2c(Cl)cccc2OCCCc2ccnc(C(C)C)c2-3)C[C@H]1C	8.44
[2H]C1([2H])Oc2ccc(F)c(F)c2-c2nc3c(cc2Cl)c(N2C[C@@H](C)N(C(=O)C=C)C[C@@H]2C)nc(=O)n3-c2c(ccnc2C(C)C)OC1([2H])[2H]	8.21
C=CC(=O)N1CCN(c2nc(=O)n3c4nc(c(Cl)cc24)-c2c(F)cccc2OCC(F)(F)CCc2ccnc(C(C)C)c2-3)[C@@H](C)C1	8.52
C=CC(=O)N1C[C@H](C)N(c2nc(=O)n3c4nc(c(F)cc24)-c2c(ccc(F)c2F)OCCC(C)c2ccnc(C(C)C)c2-3)C[C@H]1C (stereo partly drawn)	8.17
C=CC(=O)N1C[C@H](C)N(c2nc(=O)n3c4nc(c(F)cc24)-c2c(F)cccc2OCCCc2ccnc(C(C)C)c2-3)C[C@H]1C	8.06
C=CC(=O)N1CCN(c2nc(=O)n3c4nc(c(F)cc24)-c2c(F)cccc2OCCCc2ccnc(C(C)C)c2-3)[C@@H](C)C1	8.17
C=CC(=O)N1CCN(c2nc(=O)n3c4nc(c(F)cc24)-c2c(F)cccc2OCCCCc2ccnc(C(C)C)c2-3)[C@@H](C)C1	8.82
C=CC(=O)N1C[C@H](C)N(c2nc(=O)n3c4nc(c(F)cc24)-c2c(F)cccc2OCCCCc2ccnc(C(C)C)c2-3)C[C@H]1C	8.66
C=CC(=O)N1C[C@H](C)N(c2nc(=O)n3c4nc(c(Cl)cc24)-c2c(F)ccc(F)c2OCCOc2ccnc(C(C)C)c2-3)C[C@H]1C	8.36
C=CC(=O)N1C[C@H](C)N(c2nc(=O)n3c4nc(c(Cl)cc24)-c2c(F)cccc2OCCc2ccnc(C(C)C)c2-3)C[C@H]1C	8.29
C=CC(=O)N1C[C@H](C)N(c2nc(=O)n3c4nc(c(Cl)cc24)-c2c(F)cccc2OCC(F)(F)COc2ccnc(C(C)C)c2-3)C[C@H]1C	8.21

— ChEMBL document CHEMBL4823310, “Small Molecule Inhibitors of KRAS G12C Mutant” (ACS Med Chem Lett, 2021)
